This is an account of results in ChEMBL document CHEMBL4825735, “Estimation of the lipophilicity of purine-2,6-dione-based TRPA1 antagonists and PDE4/7 inhibitors with analgesic activity” (Bioorg Med Chem Lett, 2021).

Data set [1] can be described thus: Relative lipophilicity of the compound in methanol assessed as retardation factor by reversed-phase TLC analysis. It is filed as physicochemical.
Data set [2] in a line: Lipophilicity, logP of compound by shake flask method. It is filed as physicochemical. Conditions: octanol/water.

As for `COc1nc2c(c(=O)n(C)c(=O)n2C)n1CC(=O)Nc1ccc(C(C)(C)C)cc1`, the Rm in data set [1] came to 3.92.

For the compound `COc1nc2c(c(=O)n(C)c(=O)n2C)n1CCCC(=O)Nc1ccc(C(C)(C)C)cc1`, in data set [1], the Rm is 3.82.

With `CCCOc1nc2c(c(=O)n(C)c(=O)n2C)n1CCCC(=O)Nc1ccc(C(C)CC)cc1` (configuration not stated), the Rm in data set [1] was 4.86. On the same count and under the same terms, the result for `CCCOc1nc2c(c(=O)n(C)c(=O)n2C)n1CCCC(=O)Nc1ccc(C(C)(C)C)cc1` reads 4.81. Same read-out and setting: the result for `COc1nc2c(c(=O)n(C)c(=O)n2C)n1CC(=O)Nc1ccc(C(C)C)cc1` reads 3.28; that for `CCOc1nc2c(c(=O)n(C)c(=O)n2C)n1CCCC(=O)Nc1ccc(C(C)C)cc1`, 4.4. The same measure, in the same setting: the result for `CCOc1nc2c(c(=O)n(C)c(=O)n2C)n1CC(=O)Nc1ccc(C(C)(C)C)cc1` reads 3.99; that for `CCOc1nc2c(c(=O)n(C)c(=O)n2C)n1CCCC(=O)Nc1ccc(C(C)(C)C)cc1`, 3.84. Take `CCCOc1nc2c(c(=O)n(C)c(=O)n2C)n1CCCC(=O)Nc1ccc(C(C)C)cc1`: the Rm in data set [1] was 4.4. As to `CCCCOc1nc2c(c(=O)n(C)c(=O)n2C)n1CCCC(=O)Nc1ccc(C(C)CC)cc1` (configuration not stated), the Rm in data set [1] turned out to be 4.7. On to `CCOc1nc2c(c(=O)n(C)c(=O)n2C)n1CC(=O)Nc1ccc(C(C)C)cc1`, for which the Rm in data set [1] was 3.86. On the same count and under the same terms, the result for `COc1nc2c(c(=O)n(C)c(=O)n2C)n1CCCC(=O)Nc1ccc(C(C)C)cc1` reads 3.8; that for `CCCCOc1nc2c(c(=O)n(C)c(=O)n2C)n1CCCC(=O)Nc1cc(C(C)CC)ccc1O` (configuration not stated), 4.87. Turning to `CCCOc1nc2c(c(=O)n(C)c(=O)n2C)n1CCCC(=O)Nc1cc(C(C)CC)ccc1O` (configuration not stated), the Rm in data set [1] is reported as 4.52.

For the compound `CC(=O)Nc1ccc(O)cc1` [ACETAMINOPHEN], in data set [1], the Rm worked out at 0.31. On the same count and under the same terms, the result for `CCC1(CC)C(=O)NC(=O)NC1=O` [BARBITAL] reads 0.8.

With `CCOC(=O)c1ccc(N)cc1` [BENZOCAINE], in data set [1], the Rm is reported as 1.92. Still for that read-out and setting: in the case of `O=C(CCCN1CCC(O)(c2ccc(Cl)cc2)CC1)c1ccc(F)cc1` [HALOPERIDOL] it was 3.61.

`CCN(CC)CC(=O)Nc1c(C)cccc1C` [LIDOCAINE]: the Rm in data set [1] amounted to 1.31. For `COc1ccc(Cc2nccc3cc(OC)c(OC)cc23)cc1OC` [PAPAVERINE], the Rm in data set [1] was 2.79. In data set [2], this compound displayed a logP of 3. Turning to `CCC1(c2ccccc2)C(=O)NC(=O)NC1=O` [PHENOBARBITAL], the Rm in data set [1] was 1.9. Still for that read-out and setting: the result for `O=C1NC(=O)C(c2ccccc2)(c2ccccc2)N1` [PHENYTOIN] reads 2.43. Still for that read-out and setting: in the case of `C[C@]12C=CC(=O)C=C1CC[C@@H]1[C@@H]2[C@@H](O)C[C@@]2(C)[C@H]1CC[C@]2(O)C(=O)CO` [PREDNISOLONE] it was 2.49; in that of `Cn1cnc2c1c(=O)[nH]c(=O)n2C` [THEOBROMINE], 0.26. Same read-out and setting: the result for `Cn1c(=O)c2[nH]cnc2n(C)c1=O.O` [THEOPHYLLINE] reads 0.61.

As to `O=c1n(CCCN2CCN(c3cccc(Cl)c3)CC2)nc2ccccn12` [TRAZODONE], the Rm in data set [1] amounted to 2.65.

Usually logP stands for the decadic logarithm of the partition coefficient of the neutral form, usually between octanol and water. High values mean higher lipophilicity, low ones lower lipophilicity.
